Assay [1] deals with human antigen presenting cells. Description: Stimulation of human antigen presenting cells with free adjuvants, flow cytometry. Format: cell-based. Conditions: peripheral blood APCs, 10-fold serial dilutions, 18 hours, 37° C. The procedure:
Peripheral blood antigen presenting cells (APCs) were stimulated with 10-fold serial dilutions of R848, Compound 2 or a control TLR agonist at 37° C. After 18 hours, cells were analyzed via flow cytometry. Data are presented as median fluorescence intensity of each indicated marker; n=3.
To determine if adjuvant functionalization impacted the capacity of Compound 2 or Compound 1 to elicit immune activation, human antigen presenting cells were stimulated with 10-fold serial dilutions of R848, Compound 2, Compound 1 or a control TLR agonist, CL307, for 18 hours prior to analysis via flow cytometry.
On the technique in general: A flow cytometer gives signals particle by particle.

The target in assay [2] is T1, human TLR8 (Homo sapiens, UniProt Q9NR97).
T1 construct: expressed in transfected cells; host or cells: HEK293
T1 sequence (Q9NR97 27-1041): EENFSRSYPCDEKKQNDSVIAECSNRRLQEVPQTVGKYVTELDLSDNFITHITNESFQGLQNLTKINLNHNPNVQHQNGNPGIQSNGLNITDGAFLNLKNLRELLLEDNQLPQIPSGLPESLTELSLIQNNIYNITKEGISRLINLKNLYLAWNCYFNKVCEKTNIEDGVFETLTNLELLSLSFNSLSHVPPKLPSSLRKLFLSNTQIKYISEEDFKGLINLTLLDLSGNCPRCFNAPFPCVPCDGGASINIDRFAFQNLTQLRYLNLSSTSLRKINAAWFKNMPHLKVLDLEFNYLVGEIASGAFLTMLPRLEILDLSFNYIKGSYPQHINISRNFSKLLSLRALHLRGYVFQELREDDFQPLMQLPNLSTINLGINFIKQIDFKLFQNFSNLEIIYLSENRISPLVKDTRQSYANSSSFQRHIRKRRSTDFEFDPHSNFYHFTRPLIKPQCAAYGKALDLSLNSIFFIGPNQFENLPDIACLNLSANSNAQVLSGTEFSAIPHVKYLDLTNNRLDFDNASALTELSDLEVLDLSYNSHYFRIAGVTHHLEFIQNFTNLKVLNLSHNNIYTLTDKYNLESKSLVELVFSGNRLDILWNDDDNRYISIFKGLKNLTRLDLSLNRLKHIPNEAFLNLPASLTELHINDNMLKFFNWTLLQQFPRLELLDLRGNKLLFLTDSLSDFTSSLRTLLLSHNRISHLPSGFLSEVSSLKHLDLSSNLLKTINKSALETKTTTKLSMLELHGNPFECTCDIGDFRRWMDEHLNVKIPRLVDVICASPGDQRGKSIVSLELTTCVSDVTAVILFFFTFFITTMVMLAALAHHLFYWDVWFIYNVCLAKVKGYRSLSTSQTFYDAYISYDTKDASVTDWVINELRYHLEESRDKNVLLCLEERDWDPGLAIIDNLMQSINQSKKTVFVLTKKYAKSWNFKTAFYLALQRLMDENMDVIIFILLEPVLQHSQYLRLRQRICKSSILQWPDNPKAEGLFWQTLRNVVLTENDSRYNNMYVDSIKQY
The assay is described as follows: HEK293 TLR reporter (secreted embryonic alkaline phosphatase) assay. The note with it: 2-fold serial dilutions, 12 hours at 37° C. It is filed as cell-based. The procedure:
(§1) HEK293 cells were co-transfected with human TLR7 or TLR8 (top two panels) or murine TLR7 (bottom panel) and an inducible secreted embryonic alkaline phosphatase reporter gene under the control of the IFN-β minimal promoter fused to NF-κB and AP-1 binding sites. Cells were subsequently incubated with 2-fold serial dilutions of the indicated adjuvant for 12 hours at 37° C. Activity was measured by spectrophotometry (OD 650 nm) following addition of alkaline phosphatase substrate.
(§2) Next, the capacity of each functionalized TLR agonist to activate human TLR7 or TLR8 was directly assayed. HEK293 cells were co-transfected with human TLR7 or TLR8 or murine TLR7 and an inducible secreted embryonic alkaline phosphatase reporter gene under the control of the IFN-β minimal promoter fused to NF-κB and AP-1 binding sites. Cells were subsequently incubated with 2-fold serial dilutions of each the indicated adjuvants for 12 hours at 37 C in the presence of an alkaline phosphatase substrate. Activity was measured by spectrophotometry (OD 650 nm).

For assay [3], the target named is T2, murine TLR7 (Mus musculus, UniProt P58681).
T2 construct: expressed in transfected cells; host or cells: HEK293
T2 sequence (P58681 27-1050): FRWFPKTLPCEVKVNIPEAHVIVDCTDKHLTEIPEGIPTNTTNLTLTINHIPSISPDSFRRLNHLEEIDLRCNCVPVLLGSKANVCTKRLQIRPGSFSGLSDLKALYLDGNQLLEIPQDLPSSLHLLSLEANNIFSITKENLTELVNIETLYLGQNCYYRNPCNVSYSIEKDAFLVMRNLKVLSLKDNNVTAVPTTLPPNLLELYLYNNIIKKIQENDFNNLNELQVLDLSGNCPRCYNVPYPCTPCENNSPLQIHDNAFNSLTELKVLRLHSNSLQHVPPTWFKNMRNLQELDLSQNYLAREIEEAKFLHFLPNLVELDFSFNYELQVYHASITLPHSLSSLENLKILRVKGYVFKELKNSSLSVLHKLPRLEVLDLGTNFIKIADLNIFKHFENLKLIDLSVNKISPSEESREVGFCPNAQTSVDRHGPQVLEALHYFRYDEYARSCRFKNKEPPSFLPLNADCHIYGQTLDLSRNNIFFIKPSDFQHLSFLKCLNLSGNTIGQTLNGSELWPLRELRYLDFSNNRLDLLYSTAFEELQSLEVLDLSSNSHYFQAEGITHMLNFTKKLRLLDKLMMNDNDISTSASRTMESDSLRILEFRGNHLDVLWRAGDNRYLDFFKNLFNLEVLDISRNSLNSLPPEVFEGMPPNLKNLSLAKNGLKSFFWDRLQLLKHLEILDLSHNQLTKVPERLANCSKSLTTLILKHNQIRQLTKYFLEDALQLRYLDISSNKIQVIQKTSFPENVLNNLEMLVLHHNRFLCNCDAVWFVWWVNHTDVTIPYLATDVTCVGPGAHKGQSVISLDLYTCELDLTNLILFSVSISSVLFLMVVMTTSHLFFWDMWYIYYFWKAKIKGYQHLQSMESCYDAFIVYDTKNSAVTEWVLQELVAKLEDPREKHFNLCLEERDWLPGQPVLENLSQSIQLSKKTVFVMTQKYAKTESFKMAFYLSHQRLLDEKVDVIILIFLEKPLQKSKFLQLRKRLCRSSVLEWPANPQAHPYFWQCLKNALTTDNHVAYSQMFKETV
The description is as above. Conditions: 2-fold serial dilutions, 12 hours at 37° C. Format: cell-based. The procedure: as §1, §2

In assay [4] the target is T3, human TLR7 (Homo sapiens, UniProt Q9NYK1).
T3 construct: expressed in transfected cells; host or cells: HEK293
T3 sequence (Q9NYK1 27-1049): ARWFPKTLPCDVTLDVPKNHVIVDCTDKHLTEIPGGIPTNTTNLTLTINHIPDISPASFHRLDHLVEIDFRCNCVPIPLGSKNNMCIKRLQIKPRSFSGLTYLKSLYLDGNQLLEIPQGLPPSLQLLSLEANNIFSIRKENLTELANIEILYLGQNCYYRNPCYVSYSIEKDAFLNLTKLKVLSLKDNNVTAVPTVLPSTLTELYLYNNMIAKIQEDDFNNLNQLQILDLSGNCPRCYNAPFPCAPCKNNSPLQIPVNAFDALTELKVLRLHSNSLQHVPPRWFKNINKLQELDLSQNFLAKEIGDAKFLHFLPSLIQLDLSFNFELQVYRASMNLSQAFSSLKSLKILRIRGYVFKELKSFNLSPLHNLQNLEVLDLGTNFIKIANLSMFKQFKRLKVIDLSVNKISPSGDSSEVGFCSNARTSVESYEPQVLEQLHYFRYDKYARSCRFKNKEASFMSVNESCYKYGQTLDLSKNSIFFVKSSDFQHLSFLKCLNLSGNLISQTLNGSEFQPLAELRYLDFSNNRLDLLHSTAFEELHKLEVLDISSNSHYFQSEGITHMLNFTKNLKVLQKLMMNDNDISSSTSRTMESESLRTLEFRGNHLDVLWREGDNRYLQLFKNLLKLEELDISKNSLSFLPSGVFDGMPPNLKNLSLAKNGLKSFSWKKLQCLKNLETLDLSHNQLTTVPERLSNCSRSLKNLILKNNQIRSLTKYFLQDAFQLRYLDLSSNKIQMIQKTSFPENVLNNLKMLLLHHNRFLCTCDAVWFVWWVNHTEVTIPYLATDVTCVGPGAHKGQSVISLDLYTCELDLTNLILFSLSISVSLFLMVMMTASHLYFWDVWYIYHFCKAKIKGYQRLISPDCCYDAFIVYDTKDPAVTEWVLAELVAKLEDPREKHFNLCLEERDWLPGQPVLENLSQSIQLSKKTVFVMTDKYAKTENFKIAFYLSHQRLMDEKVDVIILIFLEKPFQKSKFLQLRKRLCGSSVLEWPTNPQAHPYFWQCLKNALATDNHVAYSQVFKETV
The assay is described as above. It is filed as cell-based. The note with it: 2-fold serial dilutions, 12 hours at 37° C. The procedure: as §1, §2

The test system of assay [5] is murine monocyte derived APCs. The assay is described as follows: Cytokine secretion in murine monocyte derived APCs (GM-CSF-pretreated monocytes). Format: cell-based. Conditions: 18 hours.
Experimental: Specifically, cytokine production is shown in FIG. 21 for GM-CSF-pretreated monocytes that were stimulated for 18 hours with the immunoconjugates or equivalent amounts of the unconjugated components.
Assay [6] concerns recombinant human CD16a protein. The assay is described as follows: ELISA binding to CD16a. The note with it: titration. The procedure: Maxysorp ELISA plates were coated overnight with 1.5 ug/ml recombinant human CD16a protein (R&D Systems 4325-FC-050). Plates were blocked with PBS containing 1% BSA, and incubated with a titration of antibodies or antibody immunoconjugates. Bound antibodies were detected with Peroxidase conjugated AffiniPure F(ab′)2 Fragment Goat Anti-Human IgG (Jackson 109-036-003). TMB (Fisher PI34028) was added to the wells and absorbance at 450 nm was measured after stopping the reaction with TMB stop solution (Fisher NC1291012).
In general terms: In an ELISA, binding on a coated surface is turned into a signal by an enzyme label.

For assay [7], the target named is T4, recombinant human CD64 protein (Homo sapiens, UniProt P12314).
T4 construct: purchased R&D Systems
T4 sequence (P12314 16-374): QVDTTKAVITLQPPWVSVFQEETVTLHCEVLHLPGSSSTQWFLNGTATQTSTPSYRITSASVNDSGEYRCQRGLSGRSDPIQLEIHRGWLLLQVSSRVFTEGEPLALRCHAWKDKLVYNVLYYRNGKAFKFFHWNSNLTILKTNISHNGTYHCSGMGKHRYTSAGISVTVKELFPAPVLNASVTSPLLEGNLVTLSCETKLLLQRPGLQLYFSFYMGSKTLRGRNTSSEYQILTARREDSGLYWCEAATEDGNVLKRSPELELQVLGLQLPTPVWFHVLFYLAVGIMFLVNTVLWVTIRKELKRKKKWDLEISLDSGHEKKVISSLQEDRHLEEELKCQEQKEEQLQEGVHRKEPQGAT
The assay is described as follows: ELISA binding to CD64. Conditions: titration. The procedure: Maxysorp ELISA plates were coated overnight with 1.5 ug/ml recombinant human CD64 protein (R&D Systems). Plates were blocked with PBS containing 1% BSA, and incubated with a titration of Rituximab or Rituximab immunoconjugates (Rituximab BB-01). Bound antibodies were detected with Peroxidase conjugated AffiniPure F(ab′)2 Fragment Goat Anti-Human IgG (Jackson) using TMB color development and absorbance at 450 nm was measured after stopping the reaction.

The values below come from patent US11547761B1, “Antibody adjuvant conjugates” (The Board of Trustees of the Leland Stanford Junior …, priority 2016, dated 2023).

Entries after “also recorded” stand apart in the source; their conditions may differ.

With `CCCCc1nc2c(N)nc3ccccc3c2n1CCCCN` [Compound 1], the “myeloid cell activation (median fluorescence intensity of activation markers)” value in assay [1] was “performed similarly to R848”. The “human TLR8 activation (OD 650 nm)” value in assay [2] was “activated both human TLR7 and TLR8”. The “murine TLR7 activation (OD 650 nm)” value in assay [3] is listed as “activated murine TLR7”. Further, the “human TLR7 activation (OD 650 nm)” value in assay [4] was “activated both human TLR7 and TLR8”. The “cytokine response (TNFα, IL-6, IL-12p70)” value in assay [5] is given as “failed to produce any cytokine response”.

For the compound `CCCCc1nc2c(N)nc3ccccc3c2n1CCCCN1C(=O)C=CC1=O` [Compound 2], the “myeloid cell activation (median fluorescence intensity of activation markers)” value in assay [1] is “performed similarly to R848; also recorded: potent inducer of myeloid cell activation”. The “human TLR8 activation (OD 650 nm)” value in assay [2] is recorded as “specific for TLR7 activity”. Also, the “murine TLR7 activation (OD 650 nm)” value in assay [3] was “activated murine TLR7”. Besides, the “human TLR7 activation (OD 650 nm)” value in assay [4] is “specific for TLR7 activity”.

Regarding “aglycosyl Rituximab: aglycosyl Rituximab (Invivogen hcd20-mab12)”, the “binding to CD16a (fraction of maximal OD signal)” value in assay [6] is listed as “diminished binding”.

As for “deglycosylated Rituximab: Rituximab deglycosylated with PNGase F”, the “binding to CD64” value in assay [7] is on record as “impaired binding to CD64”.
